ChEMBL document CHEMBL5247574, “Recent Progress on Bile Acid Receptor Modulators for Treatment of Metabolic Diseases” (J Med Chem, 2016)
Values belong to the compound of their own block, whether it stands above or below them.

Legend:
[1] = target: T1, G-protein coupled bile acid receptor 1 (Homo sapiens, UniProt Q8TDU6); assay: Agonist activity at TGR5 in human HEK293 cells assessed as increase in cAMP production; assay type: cell-based
T1 sequence (Q8TDU6 whole entry): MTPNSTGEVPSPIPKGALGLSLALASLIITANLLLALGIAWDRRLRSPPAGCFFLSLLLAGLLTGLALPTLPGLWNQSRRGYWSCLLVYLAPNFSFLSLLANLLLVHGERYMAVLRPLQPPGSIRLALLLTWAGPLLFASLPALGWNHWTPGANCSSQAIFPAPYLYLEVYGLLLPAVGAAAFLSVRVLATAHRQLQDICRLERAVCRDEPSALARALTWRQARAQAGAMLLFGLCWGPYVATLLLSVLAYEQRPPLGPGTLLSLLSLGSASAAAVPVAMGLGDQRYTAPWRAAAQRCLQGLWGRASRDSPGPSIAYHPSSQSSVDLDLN

[2] = target: T2, G-protein coupled bile acid receptor 1 (Homo sapiens) (UniProt Q8TDU6); assay: Agonist activity at human TGR5 expressed in human HEK293 cells at 20 uM measured after 5.5 hrs by steady-glo luciferase assay relative to control; assay type: cell-based; conditions: filed as agonist
T2 sequence (whole entry): T1 sequence (Q8TDU6 whole entry)

[3] = target: T1, G-protein coupled bile acid receptor 1; assay: Agonist activity at human TGR5 expressed in human HEK293 cells measured after 5.5 hrs by steady-glo luciferase assay; assay type: cell-based
[4] = target: T3, Bile acid receptor (Homo sapiens, UniProt Q96RI1); assay: Agonist activity at FXR (unknown origin)
T3 sequence (Q96RI1 whole entry): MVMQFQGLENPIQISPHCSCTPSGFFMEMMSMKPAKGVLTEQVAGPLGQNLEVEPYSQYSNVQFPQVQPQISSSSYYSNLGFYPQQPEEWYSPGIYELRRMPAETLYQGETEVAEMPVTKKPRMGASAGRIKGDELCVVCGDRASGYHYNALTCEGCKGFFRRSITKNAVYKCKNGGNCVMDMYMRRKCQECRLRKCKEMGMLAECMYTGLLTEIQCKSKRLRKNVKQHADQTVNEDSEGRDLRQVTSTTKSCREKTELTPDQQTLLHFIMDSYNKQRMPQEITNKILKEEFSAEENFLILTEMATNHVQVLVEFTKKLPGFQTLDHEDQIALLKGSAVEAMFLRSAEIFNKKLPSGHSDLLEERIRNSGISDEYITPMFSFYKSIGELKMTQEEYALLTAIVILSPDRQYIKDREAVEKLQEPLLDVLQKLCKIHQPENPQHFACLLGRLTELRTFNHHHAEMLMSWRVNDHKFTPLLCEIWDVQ

[5] = target: T4, G-protein coupled bile acid receptor 1 (Rattus norvegicus) (UniProt Q80T02); assay: Agonist activity at TGR5 in rat Primary intestinal cell assessed as stimulation of GLP-1 secretion at 30 uM relative to control; assay type: cell-based; conditions: filed as agonist
T4 sequence (whole entry): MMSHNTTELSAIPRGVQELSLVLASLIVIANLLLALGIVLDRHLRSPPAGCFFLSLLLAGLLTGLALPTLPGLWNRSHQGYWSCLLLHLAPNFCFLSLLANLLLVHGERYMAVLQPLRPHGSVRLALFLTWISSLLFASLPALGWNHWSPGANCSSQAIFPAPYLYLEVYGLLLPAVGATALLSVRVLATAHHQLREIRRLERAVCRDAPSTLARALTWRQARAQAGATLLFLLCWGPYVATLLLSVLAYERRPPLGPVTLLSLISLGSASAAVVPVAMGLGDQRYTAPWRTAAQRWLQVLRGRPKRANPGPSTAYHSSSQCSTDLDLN

[6] = target: T1, G-protein coupled bile acid receptor 1; assay: Agonist activity at human TGR5 transfected in CHO-K1 cells assessed as increase in cAMP production; assay type: cell-based
[7] = target: T1, G-protein coupled bile acid receptor 1; assay: Agonist activity at human TGR5; conditions: read-out: pEC50 (converted)
[8] = target: T5, Bile acid receptor (Homo sapiens) (UniProt Q96RI1); assay: Agonist activity at FXR (unknown origin) by alphascreen assay; conditions: filed as agonist
T5 sequence (whole entry): T3 sequence (Q96RI1 whole entry)

[9] = Binding affinity to FXR alpha LBD (unknown origin); set-up: species or system Homo sapiens
[10] = target: T3, Bile acid receptor; assay: Antagonist activity at FXR in human HepG2 cells incubated for 24 hrs by dual luciferase reporter assay; assay type: cell-based
[11] = target: T3, Bile acid receptor; assay: Antagonist activity at FXR (unknown origin) by HTFR assay
[12] = target: T3, Bile acid receptor; assay: Agonist activity at human GST-tagged FXR LBD (193 to 472 residues) by FRET assay
[13] = target: T2, G-protein coupled bile acid receptor 1 (Homo sapiens); assay: Agonist activity at human TGR5 transfected in CHO cells assessed as increase in cAMP production at 100 nM relative to control; assay type: cell-based; conditions: filed as agonist
[14] = target: T6, G-protein coupled bile acid receptor 1 (Mus musculus) (UniProt Q80SS6); assay: In vivo agonist activity at TGR5 in C57/Bl6 mouse assessed as increase in GLP-1 secretion at 30 mg/kg, po relative to control; assay type: functional, organism-based
T6 sequence (whole entry): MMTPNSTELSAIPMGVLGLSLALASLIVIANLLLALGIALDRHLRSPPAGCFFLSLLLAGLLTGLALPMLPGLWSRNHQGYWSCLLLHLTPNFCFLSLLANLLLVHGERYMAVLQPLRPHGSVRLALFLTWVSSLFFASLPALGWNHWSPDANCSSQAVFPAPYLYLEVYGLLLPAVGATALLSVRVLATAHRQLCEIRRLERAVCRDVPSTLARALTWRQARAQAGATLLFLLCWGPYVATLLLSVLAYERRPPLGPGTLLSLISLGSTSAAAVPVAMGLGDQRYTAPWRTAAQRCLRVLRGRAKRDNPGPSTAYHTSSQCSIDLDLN

[15] = target: T1, G-protein coupled bile acid receptor 1; assay: Agonist activity at human TGR5 transfected in CHO cells assessed as increase in cAMP production; assay type: cell-based
[16] = target: T3, Bile acid receptor; assay: Antagonist activity at FXR in human HepG2 cells in presence of CDCA by luciferase reporter assay; assay type: cell-based
[17] = target: T4, G-protein coupled bile acid receptor 1 (Rattus norvegicus); assay: Agonist activity at TGR5 in rat Primary intestinal cell assessed as stimulation of GLP-1 secretion incubated for 2 hrs by ELISA analysis relative to control; assay type: cell-based; conditions: filed as agonist

SMILES: Fc1ccccc1-c1ccncc1CN1C(c2ccccc2)=NOC1c1cc(C(F)(F)F)cc(C(F)(F)F)c1 (configuration not stated)
Activity [2]: 93%
EC50 [3]: 79 nM

SMILES: CO[C@H](c1ccccc1)c1nc2cc(F)c(F)cc2n1C(C(=O)Nc1ccc(C(=O)O)cc1C)C1CCCCC1 (some centres not stated)
IC50 [4]: 20 nM

SMILES: FC(F)(F)c1ccc(CNCc2cc3ccsc3nc2-c2ccsc2)cc1
EC50 [1]: < 10000 nM

SMILES: Cc1c(Cl)cccc1OCCCC(=O)N1CCCc2c(-c3cnn(Cc4c(F)cc(C(=O)NCCS(=O)(=O)O)cc4Cl)c3)cccc21
EC50 [6]: 23 nM

SMILES: COc1ccc(S(=O)(=O)N2CCCN(S(=O)(=O)c3ccc(OC)c(OC)c3)CC2)cc1OC [SB-756050]
EC50 [7]: 1000 nM

SMILES: CC[C@H]1[C@@H](O)C2C3CC[C@H](C(C)CCOS(=O)(=O)O)[C@@]3(C)CCC2[C@@]2(C)CC[C@@H](O)C[C@@H]12 (some centres not stated)
Activity [8]: 30 nM

SMILES: CN(C)c1cc(Cl)c(C(=O)N(Cc2ccccc2)c2ccc(O)c(C(C)(C)C)c2)c(Cl)c1
Kd [9]: 8300 nM
IC50 [10]: 4500 nM

SMILES: CC(C)c1onc(-c2c(Cl)cccc2Cl)c1COc1ccn(Cc2ccc(-c3ccccc3C(=O)O)cc2)n1
EC50 [11]: 6000 nM

SMILES: O=C(O)c1ccc2nc(N3CCC(OCc4c([C@H]5CCCC[C@@H]5C(F)(F)F)noc4C4CC4)CC3)sc2c1 (stereo in doubt; form 1)
EC50 [12]: 64 nM

SMILES: COc1ccc(C(C)(C)c2nnc(SCCOc3ccc(-n4cnc(-c5ccsc5)c4)cc3)n2-c2ccc(F)cc2)cc1OC
Activity [13]: 147%

SMILES: COc1ccc(C(C)(C)c2cnc(SCCNCc3cccnc3)n2-c2ccc(F)cc2)cc1OC
Activity [14]: 320%
Activity [13]: 129%

SMILES: COc1cc(F)ccc1-c1ccncc1N(C)C(=O)c1cc(C(F)(F)F)cc(S(=O)(=O)N2CC3(COC3)C2)c1
EC50 [15]: 9 nM

SMILES: CC[C@@H](CC[C@@H](C)[C@H]1CCC2=C3CC[C@H]4C(C)=CCC[C@]4(C)C3CC[C@@]21C)C(C)C (some centres not stated)
IC50 [16]: 35000 nM

SMILES: O=C1COc2nccc(-c3ccccc3F)c2CN1Cc1cc(C(F)(F)F)cc(C(F)(F)F)c1
Activity [17]: 360%

Other lines, results leading:

EC50 [1]: < 0.5 nM
SMILES: Cc1ccc(-c2csc3nnc(SCc4c(F)cccc4Cl)n23)cc1

EC50 [1]: < 10000 nM
SMILES: O=c1c2cccnc2nc(-c2cncc(Cl)c2)n1NCc1ccc(Cl)cc1F

Activity [2]: 96%
EC50 [3]: 1.4 nM
SMILES: Fc1cccc(F)c1-c1ccncc1CN1C(c2ccco2)=NO[C@@H]1c1cc(C(F)(F)F)cc(C(F)(F)F)c1Cl

EC50 [1]: < 100 nM
SMILES: Fc1cccc(F)c1-c1ccncc1CN1C(c2ccco2)=NOC1c1ccccc1 (configuration not stated)

Activity [5]: 251%
SMILES: CN1CC(C)(C)N(C(=O)COc2cccc3cnccc23)c2ccc(F)cc21

EC50 [1]: 229 nM
SMILES: Fc1ccc(-n2c(COc3cccc4cnccc34)nc3ccccc32)c(Cl)c1

EC50 [1]: < 10000 nM
SMILES: O=c1c2nccnc2nc(-c2ccc(F)cc2)n1CCc1ccc(Cl)cc1

EC50 [1]: 0.43 nM
SMILES: Cc1noc2cc(Cl)c(Oc3ccncc3C(=O)N3CCN(C4CC4)c4ccccc43)cc12

EC50 [1]: 7370 nM
SMILES: N#Cc1cc(F)ccc1N(C(=O)COc1cccc2cnccc12)c1ccc(F)cc1Cl
